{"source": "patent US10206905B2", "about": "“Use of composition for preparing a medicament for treatment of amyotrophic lateral sclerosis” (priority 2015, dated 2019)", "key": {"SOD1-G93A mice [1]": {"tested_on": "SOD1-G93A mice", "test": "Body weight of SOD1-G93A mice (Example 3)", "format": "in vivo", "details": "100 μg/ml in drinking water; age 21 weeks; p<0.05; FIG. 4"}, "SOD1-G93A mice [2]": {"tested_on": "SOD1-G93A mice", "test": "Rotarod test drop time of SOD1-G93A mice (Example 3)", "format": "in vivo", "details": "p<0.05, FIG. 6"}, "SOD1-G93A mice [3]": {"tested_on": "SOD1-G93A mice", "test": "Motor function scores of SOD1-G93A mice (Example 3)", "format": "in vivo", "details": "p<0.05, FIG. 5"}, "SOD1-G93A mice [4]": {"tested_on": "SOD1-G93A mice", "test": "Onset time and survival time of SOD1-G93A mice (Example 3)", "format": "in vivo", "protocol": "The transgenic mice with amyotrophic lateral sclerosis (B 6 SJL-Tg(SOD1*G93A)1Gur/JNj u, hereinafter referred to as SOD1-G93 A mice) and the wild-type control mice were purchased from Nanjing Biomedical Research Institute of Nanjing University.\nDosing to animals was initiated from the age of 10 weeks, keeping on the whole survival period. Each dosage of the composition and the positive drug edaravone group was dosed by intraperitoneal injection once a day. […] Animals in the wild control group and the model group were given the corresponding volumes of solvents by intraperitoneal injection.\nFrom the age of 10 weeks, the body weight, the motor function (motor ability score, rotarod test) of animals had been monitored once a week. Two consecutive rod droppings in the animal rotarod test had been considered as the sign of the onset of animal diseases. It was defined as the end of a disease to euthanasia when the animal cannot get righting in 30 seconds after being laid on one side.\nThe body weight, the motor ability score, the variation of the rod drop latency period with the time in the rotarod test, the onset time, and the survival time were considered as the indexes of observing the disease progress."}, "[5]": {"tested_on": "cerebral ischemic animal models", "details": "SD rat, according to the literature; cited from earlier work"}, "SOD1-G93A mice [6]": {"tested_on": "SOD1-G93A mice", "test": "Passive avoidance test of learning and memory in SOD1-G93A mice (Example 2)", "format": "in vivo", "details": "memory experiment; for Latency period after entering the dark room versus model group: age about 90 d, FIG. 2; for Number of step-through errors versus model group: FIG. 3", "excerpt": "(§1) The transgenic mice (B6SJL-TgN[SOD1-G93A] 1Gur) carrying humanized copper/zinc superoxide dismutase (SOD1) (G93A mutants)and wild-type B6SJL F1 mice are purchased from Nanjing University. The breed conversation and propagation methods of the mice: one wild-type female mouse and one transgenic male mouse were allowed to mate with each other, with their progeny identified through polymerase chain reaction (PCR) with DNA extracted from the tail of young mice.\n(§2) Calculated based on the effective doses of edaravone (SOD1-G93Amouse 15 mg/kg, SOD1-H46R rat 3-6 mg/kg) and those on cerebral ischemic animal models (SD rat 6 mg/kg) according to the literature, the dosage of edaravone was set at 12 mg/kg, then the dosage of the composition of edaravone and borneol was set at 15 mg/kg (the dosage of edaravone was set at 12 mg/kg, borneol was 3 mg/kg), and borneol was set at 3 mg/kg.\n(§3) SOD1 genetic mutant mice at the age of 70 d were divided randomly into 4 groups according to their motor functions. Respectively: the SOD1 genetic mutation control group; the treating group of the composition of edaravone and borneol at 15 mg/kg; the treating group of edaravone at 12 mg/kg; the treating group of borneol at 3 mg/kg; another B6SJL healthy mice control group without SOD1 genetic mutation was additionally set. There was 14 mice each group, half of males and half of females.\nFrom the day of grouping, animals in each group were dosed by intraperitoneal injection once a day, until the behavior test has been completed. Animals in the healthy control group and the SOD1 genetic mutation control group were given saline of equal volumes.\nThe passive avoidance test was performed when the animals were at the age of about 90 d to determine their abilities of learning and memory. The experimental device was divided into two rooms, bright and dark. […] The mice were placed into the bright room with face back to the hole in the test, the timer was initiated at the same time, and the animals entered the dark room through passing the hole, subjecting to the electric shock (0.19 mA), the recorded time was the latency period, meanwhile recording the number of step-through errors in 5 min after the mice got into the dark room. The memory experiment was carried out on the third day, the time from placing each mouse into the bright room to entering the dark room was recorded, if the mouse didn't enter the dark room in 5 min, then the latency period was recorded as 300s, meanwhile recording the number of step-through errors in 5 min after the mice got into the dark room.\nIt was assessed whether there was a synergistic effect between edaravone and borneol in the composition according to the Jong-eun's formula, q=E(a+b)/(Ea+Eb−Ea×Eb). […]"}, "SOD1-H46R rat": {"tested_on": "SOD1-H46R rat", "details": "according to the literature; cited from earlier work"}, "SOD1-G93A mice [7]": {"tested_on": "SOD1-G93A mice", "test": "Rota-rod motor function of SOD1-G93A mice (Example 1)", "format": "in vivo", "details": "p<0.05, FIG. 1", "protocol": "According to the methods reported in literatures, mice were placed on the Rota-rod (60 Hz/min, Φ190 mm), and the time from being placed on the Rota-rod to dropping was recorded. Each mouse was determined for 3 times at each time point, with the longest time of mouse keeping on the rotating rod reflecting the motor function of the mouse, the determination was stopped if the time was over 180s, calculated as 180s. The motor functions of the mice with SOD1 mutant gene were determined beginning at the age of 60 d. Thereafter, they were observed and determined every 10 days, until death.\nas §2, with “(SOD1-G93Amousel5” for “(SOD1-G93Amouse 15”, “3-6mg/kg)” for “3-6 mg/kg)”\nSOD1 genetic mutant mice at the age of 70 d were divided randomly into 4 groups according to their motor functions. […]"}, "SOD1-G93A mice [8]": {"tested_on": "SOD1-G93A mice", "test": "Onset time and survival time of SOD1-G93A mice (Example 1)", "format": "in vivo", "details": "for Survival Time Extension: i.p. once a day from age 70 d, versus SOD1-G93A control; for Onset Time / Survival Time: i.p. once a day from age 70 d until death", "excerpt": "as §1, with “mutants) and” for “mutants)and”, “are” for “were”\n5 B6SJL-TgN(SOD1-G93A)1Gur male mice were allowed to mate with B6SJLF1 female healthy mice in a ratio of 1 male to 3 females beginning at the age of 60 d. DNA was extracted from the progeny mice tail-cutting (as required in the kits), plus SOD1 primers 5′ -[…]-3 ′ and 5 ′ -[…] AAGTGA-3 ′ were amplified through 30 PCR cycles, confirming SOD1 gene strips between 200˜300bp. Mice without SOD1 mutant gene were eliminated.\nas §2, with “(SOD1-G93Amousel5” for “(SOD1-G93Amouse 15”, “3-6mg/kg)” for “3-6 mg/kg)”\nas §3, with “without SOD lgenetic” for “without SOD1 genetic”\nFrom the day of grouping, animals in each group were dosed by intraperitoneal injection once a day, until death. Animals in the healthy control group and the SOD1 genetic mutation control group were given saline of equal volumes.\nIt was determined as muscle strength decline when the time of the mice keeping on the rotarod decreased by over 30% compared with the former time determined. The onset time of the mice was determined according to the variation of this motor function and the observation of the anterior limbs of the mice with or without tremor. When the mice have lain on their backs on smooth planes for 30 s and cannot righting reflex, or there was serious infection in one or both eyes, then the mice may be judged as death and sacrificed. The time from birth to death of a mouse was the survival time of the mouse.\nIt was assessed whether there was a synergistic effect between edaravone and borneol in the composition according to the Jong-eun's formula, q=E(a+b)/(Ea+Eb−Ea×Eb). In the formula, E(a+b) is the effective rate of the combined drugs, Ea, Eb is the effective rate of A drug, B drug used alone, respectively. If q value was in the range of 0.85˜1.15, indicating the sum of the combined two drugs; q value >1.15 indicating enhancement, and q value <0.85 indicating there was an antagonistic effect when two drugs were used together."}, "[9]": {"tested_on": "amyotrophic lateral sclerosis", "details": "clinical phase-III study NCT00330681; primary endpoint not reached; cited from earlier work"}, "mutant SOD1 G93A mice": {"tested_on": "mutant SOD1 G93A mice", "details": "cited from earlier work"}, "[10]": {"details": "100 μg/ml in drinking water, age 16-21 weeks"}, "[11]": {"details": "15 mg/kg/d i.p. once a day from age 10 weeks, mean ± standard error"}}, "note": "Marks after values point to notes of the source that are not given here."}
{"smiles": "Nc1nc2ccc(OC(F)(F)F)cc2s1", "note": "[Riluzole]", "values": [{"measurement": "Weight of animals versus model control group", "setting": "SOD1-G93A mice [1]", "result": "significantly higher than in the model control group"}, {"measurement": "Drop time in the rotarod test versus model group", "setting": "SOD1-G93A mice [2]; [10]", "result": "longer than in the model group markedly"}, {"measurement": "Motor function scores versus model group", "setting": "SOD1-G93A mice [3]; [10]", "result": "significantly higher than in the model group"}, {"measurement": "Onset Time", "setting": "SOD1-G93A mice [4]; 100 μg/ml in drinking water from age 10 weeks, mean ± standard error", "result": "109.2 ± 9.4", "unit": "days"}]}
{"smiles": "CC1=NN(c2ccccc2)C(=O)C1", "note": "[Edaravone, 3-methyl-1-phenyl-2-pyrazolin-5-one]", "values": [{"measurement": "Effective dose", "setting": "[5]", "result": 6, "unit": "mg/kg"}, {"measurement": "Latency period after entering the dark room versus model group", "setting": "SOD1-G93A mice [6]; 12 mg/kg/d i.p. from 70 d, p<0.05", "result": "extended significantly"}, {"measurement": "Number of step-through errors versus model group", "setting": "SOD1-G93A mice [6]; 12 mg/kg/d i.p., p<0.05", "result": "decreased significantly"}, {"measurement": "Effective dose", "setting": "SOD1-H46R rat", "result": "3 to 6", "unit": "mg/kg"}, {"measurement": "Rotarod time (muscle strength, motor function) versus model control group", "setting": "SOD1-G93A mice [7]; 12 mg/kg/d i.p., age 110, 120, 130 d", "result": "significantly slow the decline of the muscle strength"}, {"measurement": "Effect on the survival time versus model group", "setting": "SOD1-G93A mice [8]; 12 mg/kg/d i.p. from age 70 d", "result": "extending the survival time of the mice significantly"}, {"measurement": "Influence on the onset time of the mice", "setting": "SOD1-G93A mice [8]; 12 mg/kg/d i.p. from age 70 d", "result": "no influence on the onset time"}, {"measurement": "Survival Time Extension", "setting": "SOD1-G93A mice [8]; 12 mg/kg/d", "result": 6.2, "unit": "days"}, {"measurement": "Onset Time", "setting": "SOD1-G93A mice [8]; 12 mg/kg/d", "result": "113.7 ± 2.6", "unit": "days"}, {"measurement": "Survival Time", "setting": "SOD1-G93A mice [8]; 12 mg/kg/d", "result": "144.6 ± 3.7", "unit": "days"}, {"measurement": "Survival Time", "setting": "SOD1-G93A mice [8]; 12 mg/kg/d, listed as edaravone", "result": "144.6 ± 3.7", "unit": "days"}, {"measurement": "Drop time in the rotarod test versus model group", "setting": "SOD1-G93A mice [2]; 15 mg/kg/d i.p., age 16, 19, 20, 21 weeks", "result": "markedly longer than in the model group"}, {"measurement": "ALSFRS-R score versus placebo group", "setting": "[9]", "result": "decreased less than the placebo group, there was no significant difference"}, {"measurement": "Motor function scores versus model group", "setting": "SOD1-G93A mice [3]; 15 mg/kg/d i.p., age 17, 20, 21 weeks", "result": "significantly higher than in the model group"}, {"measurement": "Progression of the symptoms and degeneration of neuron", "setting": "mutant SOD1 G93A mice; Exp Neurol. 2008, 213(2):448-55", "result": "capable of slowing the progression of the symptoms"}, {"measurement": "Effective dose", "setting": "mutant SOD1 G93A mice; SOD1-G93A mouse, according to the literature", "result": 15, "unit": "mg/kg"}, {"measurement": "Onset Time", "setting": "SOD1-G93A mice [4]; [11]", "result": "111.3 ± 10.0", "unit": "days"}, {"measurement": "Survival Time", "setting": "SOD1-G93A mice [4]; [11]", "result": "151.7 ± 9.7* d"}, {"measurement": "Survival Time Extension", "setting": "SOD1-G93A mice [4]; 15 mg/kg/d i.p., versus SOD1-G93A control", "result": 9.4, "unit": "days"}]}
{"smiles": "CC1(C)C2CCC1(C)C(O)C2", "note": "(stereo not shown) [Borneol, 2-camphol]", "values": [{"measurement": "Latency period after entering the dark room versus model group", "setting": "SOD1-G93A mice [6]; 3 mg/kg/d i.p. from 70 d", "result": "not obvious"}, {"measurement": "Number of step-through errors versus model group", "setting": "SOD1-G93A mice [6]; 3 mg/kg/d i.p.", "result": "not obvious"}, {"measurement": "Rotarod time versus model group", "setting": "SOD1-G93A mice [7]; 3 mg/kg/d i.p., only at age 130 d", "result": "different significantly from the model group"}, {"measurement": "Effect on the survival time versus model group", "setting": "SOD1-G93A mice [8]; 3 mg/kg/d i.p. from age 70 d", "result": "no statistical difference compared with the model group"}, {"measurement": "Survival Time Extension", "setting": "SOD1-G93A mice [8]; 3 mg/kg/d", "result": 2.9, "unit": "days"}, {"measurement": "Onset Time", "setting": "SOD1-G93A mice [8]; 3 mg/kg/d", "result": "113.1 ± 2.5", "unit": "days"}, {"measurement": "Survival Time", "setting": "SOD1-G93A mice [8]; 3 mg/kg/d", "result": "141.3 ± 3.6", "unit": "days"}, {"measurement": "Survival Time", "setting": "SOD1-G93A mice [8]; 3 mg/kg/d, listed as borneol", "result": "141.3 ± 3.6", "unit": "days"}]}
